These are literature values, as cited in PubChem BioAssay AID1259410 (Chemical Carcinogenesis Research Information System (CCRIS), 2018).

The test system of the series is rodent tumor promotion studies, tumor incidence. Briefly: CCRIS tumor promotion studies.

In the case of `CNC[C@H](O)c1cccc(O)c1`, the outcome is, setting by setting: (Carcinogen: N-METHYL-N'-NITRO-N-NITROSOGUANIDINE, 70-25-7, Doses [Carcinogen]: 25 UG/ML IN DRINKING WATER FOR 20 WK, Doses [Promoter]: 0, 6 MG/KG BW IN OLIVE OIL 1/2 D BEGINNING POST CARCINOGEN TREATMENT (STUDY DURATION: 52 WK), Route [Carcinogen]: ORAL, Route [Promoter]: SUBCUTANEOUS, Species: RAT, Strain/Sex: WISTAR/MALE) “stomach: adenocarcinoma”; (Carcinogen: N-METHYL-N'-NITRO-N-NITROSOGUANIDINE, 70-25-7, Doses [Carcinogen]: 25 UG/ML IN DRINKING WATER FOR 25 WK, Doses [Promoter]: 0, 6 MG/KG BW 1/2 D FOR 27 WK BEGINNING POST CARCINOGEN TREATMENT (STUDY DURATION: 52 WK), Route [Carcinogen]: ORAL, Route [Promoter]: SUBCUTANEOUS, Species: RAT, Strain/Sex: WISTAR/MALE) “glandular stomach: adenocarcinoma”.
As to `Cc1ccc(O)c(O)c1`, the outcome (Carcinogen: N-METHYL-N'-NITRO-N-NITROSOGUANIDINE, 70-25-7, Doses [Carcinogen]: 150 MG/KG IN DMSO ONCE, Doses [Promoter]: 0, 1.5% IN DIET FOR 51 WK BEGINNING 1 WK AFTER CARCINOGEN DOSE (STUDY DURATION: 52 WK), Route [Carcinogen]: GAVAGE, Route [Promoter]: ORAL, Species: RAT, Strain/Sex: F344/MALE) is “forestomach: squamous cell carcinoma; glandular stomach: adenocarcinoma”.
For `Clc1cc2c(cc1Cl)Oc1cc(Cl)c(Cl)cc1O2`, the outcome by setting is: (Carcinogen: 7,12-DIMETHYLBENZ(A)ANTHRACENE, Doses [Carcinogen]: 0.2 UMOL, Route [Carcinogen]: DERMAL, Route [Promoter]: DERMAL, Species: MOUSE, Strain/Sex: HRS/FEMALE) “integumentary system (skin): papilloma”; (Carcinogen: DIETHYLNITROSAMINE [55-18-5], Doses [Carcinogen]: 175 MG/KG BW ONCE AT 10 WK OF AGE (STUDY DURATION: 32 WK), Doses [Promoter]: 1750 NG/KG IN CORN OIL 1X/2 WK FOR 14 WK BEGINNING 18 WK POST CARCINOGEN DOSE (STUDY DURATION: 32 WK), Route [Carcinogen]: INTRAPERITONEAL, Route [Promoter]: GAVAGE, Species: RAT, Strain/Sex: SPRAGUE-DAWLEY/FEMALE) “ovary: tumor”; (Carcinogen: DIETHYLNITROSAMINE [55-18-5], Doses [Carcinogen]: 175 MG/KG BW ONCE AT 10 WK OF AGE (STUDY DURATION: 32 WK), Doses [Promoter]: 1750 NG/KG IN CORN OIL 1X/2 WK FOR 30 WK BEGINNING 2 WK POST CARCINOGEN DOSE (STUDY DURATION: 32 WK), Route [Carcinogen]: INTRAPERITONEAL, Route [Promoter]: GAVAGE, Species: RAT, Strain/Sex: SPRAGUE-DAWLEY/FEMALE) “ovary: tumor”; (Carcinogen: DIETHYLNITROSAMINE [55-18-5], Doses [Carcinogen]: 175 MG/KG BW ONCE AT 10 WK OF AGE (STUDY DURATION: 48 WK), Doses [Promoter]: 1750 NG/KG IN CORN OIL 1X/2 WK FOR 30 WK BEGINNING 2 WK POST CARCINOGEN DOSE (STUDY DURATION: 48 WK), Route [Carcinogen]: INTRAPERITONEAL, Route [Promoter]: GAVAGE, Species: RAT, Strain/Sex: SPRAGUE-DAWLEY/FEMALE) “ovary: tumor”; (Carcinogen: DIETHYLNITROSAMINE [55-18-5], Doses [Carcinogen]: 175 MG/KG BW ONCE AT 10 WK OF AGE (STUDY DURATION: 48 WK), Doses [Promoter]: 1750 NG/KG IN CORN OIL 1X/2 WK FOR 30 WK BEGINNING 18 WK POST CARCINOGEN DOSE (STUDY DURATION: 48 WK), Route [Carcinogen]: INTRAPERITONEAL, Route [Promoter]: GAVAGE, Species: RAT, Strain/Sex: SPRAGUE-DAWLEY/FEMALE) “ovary: tumor”; (Carcinogen: DIETHYLNITROSAMINE [55-18-5], Doses [Carcinogen]: 175 MG/KG BW ONCE AT 10 WK OF AGE (STUDY DURATION: 54 WK), Doses [Promoter]: 1750 NG/KG IN CORN OIL 1X/2 WK FOR 30 WK BEGINNING 18 WK POST CARCINOGEN DOSE (STUDY DURATION: 54 WK), Route [Carcinogen]: INTRAPERITONEAL, Route [Promoter]: GAVAGE, Species: RAT, Strain/Sex: SPRAGUE-DAWLEY/FEMALE) “ovary: tumor”. Moreover, the outcome by setting is: (Carcinogen: DIETHYLNITROSAMINE [55-18-5], Doses [Carcinogen]: 175 MG/KG BW ONCE AT 10 WK OF AGE (STUDY DURATION: 62 WK), Doses [Promoter]: 1750 NG/KG IN CORN OIL 1X/2 WK FOR 30 WK BEGINNING 2 WK POST CARCINOGEN DOSE (STUDY DURATION: 62 WK), Route [Carcinogen]: INTRAPERITONEAL, Route [Promoter]: GAVAGE, Species: RAT, Strain/Sex: SPRAGUE-DAWLEY/FEMALE) “ovary: tumor”; (Carcinogen: DIETHYLNITROSAMINE [55-18-5], Doses [Carcinogen]: 175 MG/KG BW ONCE AT 10 WK OF AGE (STUDY DURATION: 62 WK), Doses [Promoter]: 1750 NG/KG IN CORN OIL 1X/2 WK FOR 60 WK BEGINNING 2 WK POST CARCINOGEN DOSE (STUDY DURATION: 62 WK), Route [Carcinogen]: INTRAPERITONEAL, Route [Promoter]: GAVAGE, Species: RAT, Strain/Sex: SPRAGUE-DAWLEY/FEMALE) “ovary: tumor”; (Carcinogen: DIETHYLNITROSAMINE, 55-18-5, Doses [Carcinogen]: 10 MG/KG ONCE, Doses [Promoter]: 0, 150 PPT IN DIET FOR DURATION OF STUDY BEGINNING 30 D POST CARCINOGEN DOSE (STUDY DURATION: 450 D), Route [Carcinogen]: INTRAPERITONEAL, Route [Promoter]: ORAL, Species: RAT, Strain/Sex: SPRAGUE-DAWLEY/FEMALE) “liver: adenoma or carcinoma”; (Carcinogen: DIETHYLNITROSAMINE, 55-18-5, Doses [Carcinogen]: 90 MG/KG BW ONCE, Doses [Promoter]: 0, 0.5 UG/KG 1/WK FOR 20 WK BEGINNING 3 WK POST CARCINOGEN DOSE (STUDY DURATION: 47 WK), Route [Carcinogen]: INTRAPERITONEAL, Route [Promoter]: INTRAPERITONEAL, Species: MOUSE, Strain/Sex: B6D2F1/MALE) “liver: tumor”; (Carcinogen: N-NITROSODIMETHYLAMINE, 62-75-7, Doses [Carcinogen]: 25 MG/KG ONCE AT 5 WK OF AGE, Doses [Promoter]: 0, 0.05 UG/KG/WK FOR 20 WK BEGINNING 3 WK POST CARCINOGEN DOSE (STUDY DURATION: 52 WK), Route [Carcinogen]: INTRAPERITONEAL, Route [Promoter]: INTRAPERITONEAL, Species: MOUSE, Strain/Sex: SWISS/MALE) “lung: tumor”; (Carcinogen: N-NITROSODIMETHYLAMINE, 62-75-7, Doses [Carcinogen]: 25 MG/KG ONCE AT 5 WK OF AGE, Doses [Promoter]: 0, 1.6 UG/KG ONCE 3 WK POST CARCINOGEN DOSE (STUDY DURATION: 52 WK), Route [Carcinogen]: INTRAPERITONEAL, Route [Promoter]: INTRAPERITONEAL, Species: MOUSE, Strain/Sex: SWISS/MALE) “lung: tumor”. Besides, the outcome (Doses [Carcinogen]: 5 UMOL IN 50 µL ACETONE, Doses [Promoter]: 3.75, 7.5, 15, 30 NG 2/WK, Doses [Promoter]: 3.75, 7.5, 15, 30 NG 2/WK, Route [Carcinogen]: DERMAL, Route [Promoter]: DERMAL, Species: MOUSE, Strain/Sex: HRS/FEMALE) is listed as “integumentary system (skin): papilloma”.
As for `ClC1C(Cl)C(Cl)C(Cl)C(Cl)C1Cl` (stereo not drawn), the outcome (Carcinogen: DIETHYLNITROSAMINE, 55-18-5, Doses [Carcinogen]: 5 UG/G BW IN 0.1 ML SALINE ONCE AT 15 D OF AGE, Doses [Promoter]: 0, 250 PPM IN DIET FOR 24 WK BEGINNING AT 28 D OF AGE (STUDY DURATION: 26 WK), Route [Carcinogen]: INTRAPERITONEAL, Route [Promoter]: ORAL, Species: MOUSE, Strain/Sex: B6C3F1/FEMALE) was “liver: adenoma”.
With `CN(CCCC(=O)c1cccnc1)N=O`, for the setting “Carcinogen: Smoke, Doses [Carcinogen]: Exposure to smoke from non-filtered cigarettes for 6 mo, urine cotinine levels suggest equivalence to 1 pack a day human, Doses [Promoter]: 50 mg/kg every 4 wk for total of 4 doses, Route [Carcinogen]: Inhalation, Route [Promoter]: Subcutaneous, Species: Ferret, Strain/Sex: Male ( 9, 12/Group)”, the outcome is “lung: tumors: squamous cell carcinomas (1/12), adenocarcinomas (3/12) and adenos”.
As to `CCCCCCCCCCCCCCCCCC`, where the note is “Carcinogen: 7,12-DIMETHYLBENZ(A)ANTHRACENE, Doses [Carcinogen]: TOP, Route [Carcinogen]: DERMAL, Route [Promoter]: DERMAL, Species: MOUSE, Strain/Sex: MALE,FEMALE”, the outcome is listed as “integumentary system (skin)”.
For `CC(=O)OO`, the outcome (Carcinogen: 7,12-DIMETHYLBENZ(A)ANTHRACENE, Doses [Carcinogen]: TOP, Route [Carcinogen]: DERMAL, Route [Promoter]: DERMAL, Species: MOUSE, Strain/Sex: FEMALE) is given as “integumentary system (skin)”.
As for `O=c1cc[nH]c(=O)[nH]1`, the outcome is “kidney: adenocarcinoma” (Carcinogen: N-ETHYL-N-HYDROXYETHYLNITROSAMINE, 13147-25-6, Doses [Carcinogen]: 0.05% IN DRINKING WATER FOR 3 WK, Doses [Promoter]: 0, 3% IN DIET FOR 3 WK ADMINISTERED SIMULTANEOUSLY WITH CARCINOGEN (STUDY DURATION: 52 WK), Route [Carcinogen]: ORAL, Route [Promoter]: ORAL, Species: RAT, Strain/Sex: F344/FEMALE) and “urinary bladder: carcinoma” (Carcinogen: N-METHYL-N-NITROSOUREA, 684-93-5, Doses [Carcinogen]: 20 MG/KG 2/WK FOR 4 WK, Doses [Promoter]: 0, 3% IN DIET FOR 20 WK BEGINNING POST LAST CARCINOGEN DOSE (STUDY DURATION: 24 WK), Route [Carcinogen]: INTRAPERITONEAL, Route [Promoter]: ORAL, Species: RAT, Strain/Sex: F344/MALE).
`C[C@]12CCC(=O)C=C1CC[C@@H]1[C@@H]2CC[C@@]2(C)[C@H]1CC[C@]2(C)O`: where the note is “Carcinogen: N-BIS(2-HYDROXYPROPYL)NITROSAMINE, 53609-64-6, Doses [Carcinogen]: 210 MG/100 G BW 1/WK FOR 2 WK, Doses [Promoter]: 0, 300 PPM IN DIET OF CASTRATED RATS BEGINNING POST CARCINOGEN TREATMENT AND CONTINUING FOR 28 WK (STUDY DURATION: 30 WK, Route [Carcinogen]: INTRAPERITONEAL, Route [Promoter]: ORAL, Species: RAT, Strain/Sex: WISTAR/MALE”, the outcome is given as “thyroid gland: adenoma or carcinoma”.
